Source: PubChem BioAssay AID1963962 (Molecular Pharmacology Branch, DTP, NCI, 2024)

System: 967376-340-R-J2-PDC multicell spheroid viability
Assay: Anticancer human tumor 967376-340-R-J2-PDC patient-derived colon adenocarcinoma cell line growth inhibition [PI3K]
Details: for IC50: curve of first compound; for viability, T/C: stronger effect = lower value
Excerpt: Combinatorial screen of targeted agents with the PI3K inhibitors inavolisib, alpelisib, duvelisib, and copanlisib in multi-cell type tumor spheroids
A high-throughput screen of multi-cell type tumor spheroids was designed to identify active combinations of targeted small molecules and PI3K pathway inhibitors. Complex spheroids include a stromal component modeled by human endothelial cells (HUVEC) and fibroblasts modeled by human mesenchymal stem cells (MSCs). The concentration ranges selected for each drug and investigational agent were based upon clinically achievable concentrations if the clinical Cmax of the agent was known.
Compounds. The drugs and investigational agents: inavolisib (NSC800729), alpelisib (NSC765974), duvelisib (NSC772469), copanlisib (NSC816437), ipatasertib (NSC767898), afuresertib (NSC778305), talazoparib (NSC767125), sapanisertib (NSC764658), selumetinib (NSC741078), tovorafenib (DAY101, NSC766906), vemurafenib (NSC761431), ravoxertinib (NSC781343), sotorasib (NSC818433), MRTX1133 (NSC 836407), abemaciclib (NSC 768073), palbociclib (NSC758247), venetoclax (NSC 766270), SY5609 (NSC837396), enzalutamide (NSC755605), and darolutamide (NSC825331), were obtained from the National Cancer Institute (NCI) Developmental Therapeutics Program Chemical Repository. The FDA-approved anticancer drug set is available from the NCI Developmental Therapeutics Program. […] The stock solutions were prepared in dimethyl sulfoxide (DMSO, Sigma-Aldrich, St. Louis, MO, cat. D2650) at 800-fold the tested concentration and stored at -70 degrees C prior to their use. All drugs and investigational agents were tested over a range starting from a high concentration at or near the clinical Cmax and decreasing in half-log increments. If the clinical Cmax for an agent had not been determined, the highest concentration tested was 10 microM.
Cell Culture. All cells were maintained in an incubator at 37 degrees C and 5% CO2 with 95% humidity. The PDC lines were cultured according to standard operating procedures established by the NCI PDMR (https://pdmr.cancer.gov/sops/default.htm). All PDCs were thawed and cultured in Matrigel-coated flasks prepared with a working solution of 1X Ham's F-12 nutrient mix, without supplementation (Invitrogen, Waltham, MA, cat. 11765054), 100 U/mL penicillin-streptomycin (Invitrogen, cat. 15140122), and 2.5% Matrigel (Corning Inc., Corning, NY, cat. 354248) for the first three passages. The 354836-022-R-J1-PDC, 475296-252-R-J1-PDC, and 997726-040-R-J2-PDC lines were cultured in 6A media, which includes advanced DMEM/F-12 (Thermo Fisher Scientific, cat. 12634028), 10 mM HEPES (Thermo Fisher Scientific, cat. 15630080), 1X GlutaMAX supplement (Thermo Fisher Scientific, cat. 35050061), 0.1 mg/mL primocin (InvivoGen, San Diego, CA, cat. ant-pm-2), 10% defined fetal bovine serum, heat inactivated (HyClone Laboratories Inc., Logan, UT, cat. SH30070.03HI), 50% L-WRN conditioned media (ATCC, cat. CRL-3276), 1.25 mM N-Acetyl-L-cysteine (Sigma-Aldrich, cat. A9165), 10 mM nicotinamide (Sigma-Aldrich, cat. N0636), 1X B-27 supplement (Thermo Fisher Scientific, cat. 17504044), 1X N-2 supplement (Thermo Fisher Scientific, cat. 17502048), and 10 microM Y-27632 dihydrochloride (Tocris Bioscience, Bristol, United Kingdom, cat. 1254). The 624824-186-R-J2-PDC line was cultured in 6C/Colon 1B media, which includes all 6A media components plus 50 ng/mL human EGF recombinant protein (Thermo Fisher Scientific, cat. PHG0311). […]
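Also: spheroids exposed to agents for 7 days before read-out.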
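For viability, T/C in this document: luminescence used as surrogate of cell viability.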

For Cn1nccc1Nc1nccc(-c2ccn(C(CO)c3ccc(Cl)c(F)c3)c(=O)c2)n1 (configuration not stated) + CC(Nc1ccc2c(c1)OCCn1cc(N3C(=O)OCC3C(F)F)nc1-2)C(N)=O, the IC50 (second compound 0.00316 µM) was > 10 µM, the IC50 (second compound 0.01 µM) was > 10 µM and the IC50 (second compound 0.0316 µM) was > 10 µM. The IC50 (second compound 0.1 µM) was > 10 µM, the IC50 (second compound 0.316 µM) was > 10 µM and the IC50 (second compound 1 µM) was 0.0465 µM. The viability, T/C (second compound 0.00316 µM, first compound 0.0316 µM) was 100%, the viability, T/C (second compound 0.00316 µM, first compound 0.1 µM) was 89.8% and the viability, T/C (second compound 0.00316 µM, first compound 0.316 µM) was 105%. The viability, T/C (second compound 0.00316 µM, first compound 1 µM) was 71.5%, the viability, T/C (second compound 0.00316 µM, first compound 3.16 µM) was 108% and the viability, T/C (second compound 0.00316 µM, first compound 10 µM) was 101%. The viability, T/C (second compound 0.01 µM, first compound 0.0316 µM) was 107%, the viability, T/C (second compound 0.01 µM, first compound 0.1 µM) was 67.5% and the viability, T/C (second compound 0.01 µM, first compound 0.316 µM) was 81%. For the same molecule, the viability, T/C (second compound 0.01 µM, first compound 1 µM) was 82.2%, the viability, T/C (second compound 0.01 µM, first compound 3.16 µM) was 91.8% and the viability, T/C (second compound 0.01 µM, first compound 10 µM) was 102%. The viability, T/C (second compound 0.0316 µM, first compound 0.0316 µM) was 80.8%, the viability, T/C (second compound 0.0316 µM, first compound 0.1 µM) was 101% and the viability, T/C (second compound 0.0316 µM, first compound 0.316 µM) was 76.8%. The viability, T/C (second compound 0.0316 µM, first compound 1 µM) was 92%, the viability, T/C (second compound 0.0316 µM, first compound 3.16 µM) was 70.9% and the viability, T/C (second compound 0.0316 µM, first compound 10 µM) was 85.3%. For the same molecule, the viability, T/C (second compound 0.1 µM, first compound 0.0316 µM) was 72.3%, the viability, T/C (second compound 0.1 µM, first compound 0.1 µM) was 65.6% and the viability, T/C (second compound 0.1 µM, first compound 0.316 µM) was 79.3%. It also gave a viability, T/C (second compound 0.1 µM, first compound 1 µM) of 78.4%, a viability, T/C (second compound 0.1 µM, first compound 3.16 µM) of 72.9% and a viability, T/C (second compound 0.1 µM, first compound 10 µM) of 70.3%. The viability, T/C (second compound 0.316 µM, first compound 0.0316 µM) was 62.5%, the viability, T/C (second compound 0.316 µM, first compound 0.1 µM) was 68% and the viability, T/C (second compound 0.316 µM, first compound 0.316 µM) was 60.2%. For the same molecule, the viability, T/C (second compound 0.316 µM, first compound 1 µM) was 78%, the viability, T/C (second compound 0.316 µM, first compound 3.16 µM) was 63.1% and the viability, T/C (second compound 0.316 µM, first compound 10 µM) was 46.6%. For the same molecule, the viability, T/C (second compound 1 µM, first compound 0.0316 µM) was 49.6%, the viability, T/C (second compound 1 µM, first compound 0.1 µM) was 48.3% and the viability, T/C (second compound 1 µM, first compound 0.316 µM) was 48.4%. It also gave a viability, T/C (second compound 1 µM, first compound 1 µM) of 41.6%, a viability, T/C (second compound 1 µM, first compound 3.16 µM) of 32.3% and a viability, T/C (second compound 1 µM, first compound 10 µM) of 31.2%.
